# Results reported in US20030055007A1, “Antimicrobial agents” (priority 2001, published 2003).
# Like-named read-outs stand apart in the source and are kept apart here.
# Key:
# [1] = system: AIDS virus (HIV-1, HIV-2); assay: Complete inhibitory activity against AIDS virus, MT-4 cells, 12-well microplate, 3- and 6-day culture; format: cell-based; conditions: for lowest sample concentration (circle-marked well) at which AIDS virus growth was inhibited completely (100%): MT-4 cells, 2-fold dilutions from 1000 μg/ml
# MT-4 cells [2] = system: MT-4 cells
# MT-4 cells [3] = assay: Cell damage caused by the sample in the AIDS virus microplate test; conditions: for cell damage / cytotoxicity (in words): AIDS virus test
# [4] = oral; cited from earlier work
# [5] = system: Influenza virus B/Hokkaidou/1/97; assay: microbe, parasite or virus in culture; format: cell-based; conditions: for MIC: unidentified influenza virus, read-out: Minimum inhibitory concentration (MIC)
# [6] = system: Influenza virus A/Hokkaidou/1/96 (H1N1); assay: organism not typed; format: cell-based; conditions: for MIC: read-out: Minimum inhibitory concentration (MIC)
# [7] = system: Influenza virus A/Hokkaidou/1/97 (H3N2); assay: organism not typed; format: cell-based; conditions: for MIC: read-out: Minimum inhibitory concentration (MIC)
# [8] = system: influenza virus (H1N1, H3N2, Type B); format: cell-based
# E. coli O157 = format: cell-based; conditions: 30° C., 17 hours, 1:40 = 2 mg/ml, <40-fold = no complete inhibition at 1:40
# P. aerginos = assay: Antibacterial activity test (2), dilution on agar culture medium; format: cell-based; conditions: 30° C., 17 hours, 1:40 = 2 mg/ml, <40-fold = no complete inhibition at 1:40
# S. Enteritidis = assay: as above; format: cell-based; conditions: 30° C., 17 hours, 1:40 = 2 mg/ml, <40-fold = no complete inhibition at 1:40
# K. pneumoniae = assay: as above; format: cell-based; conditions: 30° C., 17 hours, 1:40 = 2 mg/ml, <40-fold = no complete inhibition at 1:40
# B. subtilis = assay: as above; format: cell-based; conditions: 30° C., 17 hours, 1:40 = 2 mg/ml, <40-fold = no complete inhibition at 1:40
# S. aureus = assay: as above; format: cell-based; conditions: 30° C., 17 hours, 1:40 = 2 mg/ml, <40-fold = no complete inhibition at 1:40
# Experimental: Aqueous solutions of each specimen (powders) at a concentration of 8% was diluted 1:40 as the specimen stock solution for MIC measurement. The stock solution diluted at a graduation ratio of 1:40 to 1:400 and the stock solution were added to the agar culture medium on which 6 test […] were inoculated, and incubated at 30° C. for 17 hours. Growth inhibition bands were examined on the agar culture medium. The specimen stock solution was prepared by diluting 25 ml of 8% solution with 1000 cc of distilled water(1:40 dilution), which is converted into the amount per 2 mg/ml by solid content.
# However, the remaining samples that were indicative of “<40-fold (lower than the 1:40 dilution)” were proven to have a certain degree of inhibitory effects. They are expected to show the complete inhibitory effects against the bacterial growth, by increasing the concentration level. As a consequence, the samples, 5, 6, 11-14 were recognized to have sufficient useful antibacterial activity.
# influenza virus = conditions: in vivo, po
# [9] = H1N1, liquid samples, stock 10 μl/ml guaiacol, 2 μl/ml 2,6-dimethoxyphenol
# [10] = H1N1, stock 10 mg/ml, read when virus multiplied to 100 TCID (3-4 days)
# [11] = H3N2, stock 10 mg/ml, read when virus multiplied to 100 TCID (3-4 days)
compound,measurement,setting,value
"COc1cc(C(O)C(CO)Oc2c(OC)cccc2OC)cc(OC)c1O (stereo not drawn) [SOS, syringylglycerol-β-syringyl ether, reference compound]",viral (inhibitory) activity against AIDS virus,[1]; 3rd day of culture,15.6 μl/ml
same,cell damage,MT-4 cells [2],31.3 μl/ml
"COc1cc(S(=O)(=O)[O-])ccc1O.COc1cc(S(=O)(=O)[O-])ccc1O.O.[K+].[K+] [guaiacol-4-sulfonate potassium salt 0.5-hydrate, reference compound]",anti-AIDS virus activity (in words),[1]; cell-level test,not to possess effective anti-AIDS virus activity
same,cell damage / cytotoxicity (in words),MT-4 cells [3],caused cell damage
"COc1ccccc1O [sample 1, Guaiacol]",toxicity level in a human (ORL-HMN),[4],43 mg/kg
same,lowest sample concentration (circle-marked well) at which AIDS virus growth was inhibited completely (100%),[1]; 3-day culture,◯ (31.3) μg/ml
same,lowest sample concentration (circle-marked well) at which AIDS virus growth was inhibited completely (100%),"[1]; 3-day culture, listed as guaiacol",31.3 µg/mL
same,lowest sample concentration (circle-marked well) at which AIDS virus growth was inhibited completely (100%),[1]; 6-day culture,◯ (125) μg/ml
same,lowest sample concentration (circle-marked well) at which AIDS virus growth was inhibited completely (100%),"[1]; 6-day culture, listed as guaiacol",125 µg/mL
same,Minimum inhibitory concentration (MIC),"[5]; Type B, liquid samples, stock 10 μl/ml guaiacol, 2 μl/ml 2,6-dimethoxyphenol",3.8 μl/ml
same,Minimum inhibitory concentration (MIC),[6]; [9],3.8 μl/ml
same,Minimum inhibitory concentration (MIC),"[7]; H3N2, liquid samples, stock 10 μl/ml guaiacol, 2 μl/ml 2,6-dimethoxyphenol",1.9 μl/ml
same,concentration up to which cell damage was observed,MT-4 cells [3]; 3-day incubation,250 µg/mL
same,concentration up to which cell damage was observed,MT-4 cells [3]; 6-day incubation,250 µg/mL
"COc1cccc(OC)c1O [sample 3, 2,6-dimethoxyphenol]",lowest sample concentration (circle-marked well) at which AIDS virus growth was inhibited completely (100%),[1]; 3-day culture,◯ (31.3) μg/ml
same,lowest sample concentration (circle-marked well) at which AIDS virus growth was inhibited completely (100%),[1]; 6-day culture,◯ (31.3) μg/ml
same,Minimum inhibitory concentration (MIC),[6]; [9],> 1.0 μl/ml
same,effect against influenza virus (in words),[8],not effective
"COc1cc(O)cc(OC)c1 [sample 4, 3,5-dimethoxyphenol]",lowest sample concentration (circle-marked well) at which AIDS virus growth was inhibited completely (100%),[1]; 3-day culture,◯ (125) μg/ml
same,lowest sample concentration (circle-marked well) at which AIDS virus growth was inhibited completely (100%),[1]; 6-day culture,◯ (125) μg/ml
same,lowest sample concentration (circle-marked well) at which AIDS virus growth was inhibited completely (100%),"[1]; 6-day culture, listed as 3,5-dimethoxyphenol",125 µg/mL
same,MIC,"[5]; Type B, stock 10 mg/ml, read when virus multiplied to 100 TCID (3-4 days)",3800 µg/mL
same,MIC,[6]; [10],5000 µg/mL
same,MIC,[7]; [11],1900 µg/mL
same,well up to which cell damage was observed,"MT-4 cells [3]; 6-day incubation, well number",3 (250)
same,"cell damage when 3,4-dimethoxyphenol was added to the sample","MT-4 cells [3]; ratio of 1:1, anti-viral effect not reduced",only in the first well
"COc1cc(C(O)C(CO)Oc2ccccc2OC)ccc1OCc1ccccc1 (stereo not drawn) [sample 12, 4-benzyloxyguaiacylglycerol-β-guaiacylether]",dilution of 8% solution giving complete growth inhibition,E. coli O157,<40-fold
same,dilution of 8% solution giving complete growth inhibition,P. aerginos,<40-fold
same,viral (inhibitory) activity against AIDS virus,[1]; 6th day of culture,125 μl/ml
same,dilution of 8% solution giving complete growth inhibition,S. Enteritidis,<40-fold
same,Minimum inhibitory concentration (MIC),[5],2.5 mg/mL
same,Minimum inhibitory concentration (MIC),[6]; [10],8.0 mg/mL
same,dilution of 8% solution giving complete growth inhibition,K. pneumoniae,<40-fold
same,dilution of 8% solution giving complete growth inhibition,B. subtilis,<40-fold
same,Minimum inhibitory concentration (MIC),[7]; [11],2.5 mg/mL
same,dilution of 8% solution giving complete growth inhibition,S. aureus,<40-fold
"COc1cc(C=O)cc(OC)c1O [sample 13, Syringaldehyde]",dilution of 8% solution giving complete growth inhibition,E. coli O157,<40-fold
same,dilution of 8% solution giving complete growth inhibition,P. aerginos,<40-fold
same,lowest sample concentration (circle-marked well) at which AIDS virus growth was inhibited completely (100%),[1]; 6-day culture,3.91 µg/mL
same,dilution of 8% solution giving complete growth inhibition,S. Enteritidis,<40 fold
same,MIC,[5],3800 µg/mL
same,MIC,[6],3800 µg/mL
same,dilution of 8% solution giving complete growth inhibition,K. pneumoniae,<40-fold
same,dilution of 8% solution giving complete growth inhibition,B. subtilis,<40-fold
same,MIC,[7],1900 µg/mL
same,cell damage / cytotoxicity (in words),MT-4 cells [3],severe cell damage
same,dilution of 8% solution giving complete growth inhibition,S. aureus,<40-fold
Lignosulfonic acid sodium salt [sample 5],cell damage,MDCK cells,not seen
Lignosulfonic acid sodium salt acetate [sample 6],cell damage,MDCK cells,not seen
same,side effects,influenza virus,not seen
